Reference: patent US9840503B2, “Heterocyclic compounds and uses thereof” (Incyte Corporation, priority 2015, dated 2017)

Columns and labels:
Format in all cases: biochemical
AXL = AXL (Homo sapiens (Human), UniProt P30530); test: TAM Enzymatic Assay (HTRF), AXL; conditions: 13.8 nM AXL, 100 uM ATP, 60 min room temperature
Method: (§1) The assay buffer contained 50 mM HEPES, pH7.5, 10 mM MgCl2, 1 mM EGTA, 0.01% NP-40 and 2 mM DTT. 0.5 ul test compounds dissolved in DMSO were transferred from compound plates to white 384-well assay plates (Greiner […] plates). […] A 1 mM stock solution of peptide substrate Biotin-[…]-amide (Quality Controlled Biochemicals, MA) dissolved in DMSO was diluted to 1 uM in assay buffer containing 100 uM ATP (for AXL and c-MER assays) or 20 uM ATP (for TYRO3 assay). 10 ul enzyme solution (or assay buffer for the enzyme blank) was added to the appropriate wells in each plate, and then 10 ul/well substrate solution was added to initiate the reaction. The plate was protected from light and incubated at room temperature for 60 min. […] The plate was incubated for 1 h at room temperature, and HTRF (homogenous time resolved fluorescence) signal was measured on a PHERAstar FS plate reader (BMG labtech). Percentage of inhibition was calculated for each concentration and IC50 value was generated from curve fitting with GraphPad Prism software.

TYRO3 = TYRO3 (Homo sapiens (Human), UniProt Q06418); test: TAM Enzymatic Assay (HTRF), TYRO3; conditions: 0.366 nM TYRO3, 20 uM ATP, 60 min room temperature
Method: as §1

c-MER = c-MER (Homo sapiens (Human), UniProt Q12866); test: TAM Enzymatic Assay (HTRF), c-MER; conditions: 4.1 nM c-MER, 100 uM ATP, 60 min room temperature
Method: as §1

Sequence of TYRO3 (Q06418 41-890): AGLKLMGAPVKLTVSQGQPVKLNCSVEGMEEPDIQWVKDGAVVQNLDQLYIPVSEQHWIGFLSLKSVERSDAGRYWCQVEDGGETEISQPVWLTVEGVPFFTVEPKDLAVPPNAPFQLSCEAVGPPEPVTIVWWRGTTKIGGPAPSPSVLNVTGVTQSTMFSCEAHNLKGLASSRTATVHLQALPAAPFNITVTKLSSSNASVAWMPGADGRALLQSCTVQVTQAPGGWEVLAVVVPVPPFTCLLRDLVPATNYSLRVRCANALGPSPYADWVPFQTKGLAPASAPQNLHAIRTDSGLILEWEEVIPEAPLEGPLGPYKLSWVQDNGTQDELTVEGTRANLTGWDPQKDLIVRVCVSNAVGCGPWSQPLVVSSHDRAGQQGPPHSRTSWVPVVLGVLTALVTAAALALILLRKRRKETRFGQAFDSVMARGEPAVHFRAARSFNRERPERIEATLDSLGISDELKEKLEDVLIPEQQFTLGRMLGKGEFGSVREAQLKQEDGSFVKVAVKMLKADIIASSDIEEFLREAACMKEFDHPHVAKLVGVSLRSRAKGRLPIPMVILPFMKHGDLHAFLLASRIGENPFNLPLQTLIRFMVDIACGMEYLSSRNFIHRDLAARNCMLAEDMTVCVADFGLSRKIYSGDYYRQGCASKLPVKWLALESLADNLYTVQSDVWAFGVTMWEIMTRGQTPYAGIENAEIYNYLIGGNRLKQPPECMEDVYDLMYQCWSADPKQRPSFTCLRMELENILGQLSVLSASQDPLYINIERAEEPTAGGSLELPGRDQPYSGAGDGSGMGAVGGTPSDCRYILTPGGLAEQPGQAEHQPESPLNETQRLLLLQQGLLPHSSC
Sequence of c-MER (Q12866 21-999): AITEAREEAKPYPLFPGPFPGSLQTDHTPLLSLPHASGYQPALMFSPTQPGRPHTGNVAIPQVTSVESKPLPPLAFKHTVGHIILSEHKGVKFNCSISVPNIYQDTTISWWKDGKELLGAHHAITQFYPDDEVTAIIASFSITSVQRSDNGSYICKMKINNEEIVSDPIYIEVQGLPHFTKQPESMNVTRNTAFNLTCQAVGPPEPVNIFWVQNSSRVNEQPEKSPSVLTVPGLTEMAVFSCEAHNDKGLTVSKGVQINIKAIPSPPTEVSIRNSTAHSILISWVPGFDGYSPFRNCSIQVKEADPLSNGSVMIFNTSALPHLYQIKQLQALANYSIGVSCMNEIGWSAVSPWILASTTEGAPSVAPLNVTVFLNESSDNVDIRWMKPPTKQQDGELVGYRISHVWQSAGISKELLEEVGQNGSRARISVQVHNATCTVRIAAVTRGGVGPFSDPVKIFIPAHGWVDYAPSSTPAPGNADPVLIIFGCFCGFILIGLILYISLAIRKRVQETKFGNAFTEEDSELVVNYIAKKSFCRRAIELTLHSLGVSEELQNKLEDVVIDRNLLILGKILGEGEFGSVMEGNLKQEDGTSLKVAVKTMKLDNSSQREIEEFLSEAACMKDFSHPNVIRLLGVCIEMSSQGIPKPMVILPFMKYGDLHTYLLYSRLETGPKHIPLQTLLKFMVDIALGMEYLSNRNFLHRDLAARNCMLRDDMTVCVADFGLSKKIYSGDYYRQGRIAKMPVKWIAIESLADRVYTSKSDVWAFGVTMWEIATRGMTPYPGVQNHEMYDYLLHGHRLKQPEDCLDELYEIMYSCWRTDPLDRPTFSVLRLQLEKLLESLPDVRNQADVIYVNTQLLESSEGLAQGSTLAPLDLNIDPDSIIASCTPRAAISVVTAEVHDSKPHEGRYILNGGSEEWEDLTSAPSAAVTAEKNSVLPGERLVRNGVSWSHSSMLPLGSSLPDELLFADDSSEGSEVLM
Sequence of AXL (P30530 26-894): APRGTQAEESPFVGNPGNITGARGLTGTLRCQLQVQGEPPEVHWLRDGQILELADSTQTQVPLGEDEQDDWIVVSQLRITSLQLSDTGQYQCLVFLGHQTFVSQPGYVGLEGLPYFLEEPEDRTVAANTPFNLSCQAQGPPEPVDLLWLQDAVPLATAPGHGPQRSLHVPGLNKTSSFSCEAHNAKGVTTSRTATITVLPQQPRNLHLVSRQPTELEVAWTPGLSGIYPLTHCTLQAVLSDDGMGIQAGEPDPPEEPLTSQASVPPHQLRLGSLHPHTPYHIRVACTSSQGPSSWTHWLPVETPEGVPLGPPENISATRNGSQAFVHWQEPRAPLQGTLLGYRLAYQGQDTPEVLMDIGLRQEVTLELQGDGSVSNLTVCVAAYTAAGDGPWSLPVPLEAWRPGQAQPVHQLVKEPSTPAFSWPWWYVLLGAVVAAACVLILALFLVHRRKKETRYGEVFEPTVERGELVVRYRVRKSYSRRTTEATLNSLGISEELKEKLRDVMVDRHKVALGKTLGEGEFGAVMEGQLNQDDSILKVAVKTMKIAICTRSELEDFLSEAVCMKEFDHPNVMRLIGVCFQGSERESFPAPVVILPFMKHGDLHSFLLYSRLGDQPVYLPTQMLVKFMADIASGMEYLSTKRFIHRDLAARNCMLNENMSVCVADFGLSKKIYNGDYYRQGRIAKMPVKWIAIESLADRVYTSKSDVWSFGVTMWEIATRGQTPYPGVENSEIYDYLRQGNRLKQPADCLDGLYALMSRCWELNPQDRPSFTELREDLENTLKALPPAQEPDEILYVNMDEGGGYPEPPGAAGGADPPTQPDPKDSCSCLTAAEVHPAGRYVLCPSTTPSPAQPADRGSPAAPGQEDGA

Row | Compound | IC50 (AXL) [nM] | IC50 (TYRO3) [nM] | IC50 (c-MER) [nM]
1 | CCCCNc1ncc2c3ccc(CNCCO)cc3c(=O)n([C@H]3CC[C@H](O)CC3)c2n1 [Example 5, 3-(Butylamino)-5-(trans-4-hydroxycyclohexyl)-8-{[(2-hydroxyethyl)amino]methyl}pyrimido [4,5-c]isoquinolin-6(5H)-one] | > 1000 | – | –
2 | CCCCNc1ncc2c3ccc(CNC4CCCCC4)cc3c(=O)n([C@H]3CC[C@H](O)CC3)c2n1 [Example 2, 3-(Butylamino)-8-[(cyclohexylamino)methyl]-5-(trans-4-hydroxycyclohexyl)pyrimido[4,5-c]isoquinolin-6(5H)-one] | – | < 100 | < 100
3 | CCCCNc1ncc2c(n1)N([C@H]1CC[C@H](O)CC1)Cc1cc(CN3CCOCC3)ccc1-2 [Example 1, trans-4-[3-(Butylamino)-8-(morpholin-4-ylmethyl)pyrimido[4,5-c]isoquinolin-5(6H)-yl]cyclohexanol] | > 1000 | – | –
4 | CCCCNc1ncc2c3ccc(-c4c(F)cccc4F)cc3c(=O)n([C@H]3CC[C@H](O)CC3)c2n1 [Example 8, 3-(Butylamino)-8-(2,6-difluorophenyl)-5-(trans-4-hydroxycyclohexyl)pyrimido[4,5-c]isoquinolin-6(5H)-one] | > 1000 | > 1000 | > 1000
5 | CCCCNc1ncc2c3ccc(CNC4CCCCC4)cc3c(=O)n([C@H]3CC[C@H](N)CC3)c2n1 [Example 6, 5-(trans-4-aminocyclohexyl)-3-(butylamino)-8-((cyclohexylamino)methyl)pyrimido[4,5-c]isoquinolin-6(5H)-one] | – | < 100 | < 100
6 | CCCCNc1ncc2c3ccc(-c4cnn(C)c4)cc3c(=O)n([C@H]3CC[C@H](O)CC3)c2n1 [Example 7, 3-(Butylamino)-5-(trans-4-hydroxycyclohexyl)-8-(1-methyl-1H-pyrazol-4-yl)pyrimido[4,5-c]isoquinolin-6(5H)-one] | > 1000 | – | –
7 | CCCCNc1ncc2c3ccc(CNC4CCOCC4)cc3c(=O)n([C@H]3CC[C@H](O)CC3)c2n1 [Example 4, 3-(Butylamino)-5-(trans-4-hydroxycyclohexyl)-8-[(tetrahydro-2H-pyran-4-ylamino)methyl]pyrimido[4,5-c]isoquinolin-6(5H)-one] | > 1000 | 100 to 1000 | < 100

Results, then the molecule that gave them:

Row | IC50 (AXL) [nM] | IC50 (TYRO3) [nM] | IC50 (c-MER) [nM] | Compound
8 | < 100 | < 100 | < 100 | CCCCNc1ncc2c(n1)N([C@H]1CC[C@H](O)CC1)Cc1cc(CNC3CCCCC3)ccc1-2 [Example 3, trans-4-[3-(Butylamino)-8-[(cyclohexylamino)methyl]pyrimido[4,5-c]isoquinolin-5(6H)-yl]cyclohexanol]
9 | – | < 100 | < 100 | CCCCNc1ncc2c(n1)N([C@H]1CC[C@H](N)CC1)Cc1cc(CNC3CCOCC3)ccc1-2 [Example 10, 5-(trans-4-Aminocyclohexyl)-N-butyl-8-{[(tetrahydropyran-4-yl)amino]methyl}-5,6-dihydropyrimido[4,5-c]isoquinolin-3-amine]
10 | – | < 100 | < 100 | CCCCNc1ncc2c(n1)N([C@H]1CC[C@H](N)CC1)Cc1cc(CNC3CCCC3)ccc1-2 [Example 11, 5-(trans-4-aminocyclohexyl)-N-butyl-8-((cyclopentylamino)methyl)-5,6-dihydropyrimido[4,5-c]isoquinolin-3-amine]
11 | < 100 | < 100 | < 100 | CCCCNc1ncc2c(n1)N([C@H]1CC[C@H](N)CC1)Cc1cc(CNC3CCCCC3)ccc1-2 [Example 9, 5-(trans-4-Aminocyclohexyl)-N-butyl-8-[(cyclohexylamino)methyl]-5,6-dihydropyrimido [4,5-c]isoquinolin-3-amine]
